Measured values reported in ChEMBL document CHEMBL5113512, “β-Nitrostyrene derivatives as broad range potential antifungal agents targeting fungal cell wall” (2022).
Converted amounts (≈) assume the structure as drawn. The source made the active and inactive calls. The calls are words filed in the database; no cut-off is given here.

Key:
Candida [1] = assay: Upregulation of LSC2 gene expression in Candida cells; format: functional, cell-based
Candida [2] = assay: Downregulation of PGA10 gene expression in Candida cells; format: functional, cell-based
Candida albicans [3] = assay: Synergistic antifungal activity against Candida albicans SN152 harboring CAS5 mutant assessed as Caspofungin MIC incubated for 48 hrs by checker board assay; format: functional
Candida albicans [4] = assay: Synergistic antifungal activity against Candida albicans ATCC 24433 assessed as inhibition of fungal growth incubated for 48 hrs in presence of SDS by checker board assay; format: functional
Candida albicans [5] = assay: Antifungal activity against Candida albicans ATCC 24433 overexpressing ADPDR5-GFP assessed as inhibition of fungal growth by broth microdilution method; format: functional
Candida albicans [6] = assay: Upregulation of IFF8 gene expression in Candida albicans ATCC 24433 by qRT-PCR analysis; format: functional
Candida albicans [7] = assay: Synergistic antifungal activity against Candida albicans ATCC 24433 assessed as fractional inhibitory concentration index incubated for 48 hrs in presence of Calcoflour White by checker board assay; format: functional
[Candida] auris [8] = Induction of ROS generation in Candida auris CBS10913 assessed as increase in relative fluorescence unit at sub-inhibitory concentration incubated for 1 hr by DCFDA staining-based flow cytometric analysis; format: functional, organism-based; details: Candidozyma auris
Candida parapsilosis [9] = assay: Synergistic antifungal activity against Candida parapsilosis ATCC 90018 assessed as Congo red MIC incubated for 48 hrs by checker board assay; format: functional; details: Lodderomyces parapsilosis
Candida albicans [10] = assay: Synergistic antifungal activity against Candida albicans SN152 harboring CAS5 mutant assessed as inhibition of fungal growth incubated for 48 hrs in presence of fluconazole by checker board assay; format: functional
Candida [11] = assay: Upregulation of HYM1 gene expression in Candida cells; format: functional, cell-based
Nakaseomyces glabratus = assay: Antifungal activity against Candida glabrata ATCC 2001 assessed as inhibition of fungal growth by broth microdilution method; format: functional
Candida albicans [12] = assay: Inhibition of drug efflux in Candida albicans ATCC 24433 overexpressing ADCaMDR1-GF assessed as […] in nile red efflux incubated for 30 mins by flow cytometry; format: functional
Candidozyma auris = assay: Upregulation of CaPHO15 gene expression in Candida auris CBS10913 assessed as increase in glycerol content at sub-inhibitory concentration incubated for 2 hrs; format: functional
Candida albicans [13] = assay: Inhibition of drug efflux in Candida albicans ATCC 24433 overexpressing ADCDR1-GFP assessed as reduction in rhodamine 6g efflux preincubated for 45 mins followed by substrate addition and measured after 30 mins; format: functional; details: dose 0.1-100 µg/ml, time 75.0 min, DDE = dose-dependent effect
Candida [14] = assay: Downregulation of PGA48 gene expression in Candida cells; format: functional, cell-based
Candida [15] = assay: Upregulation of CPA2 gene expression in Candida cells; format: functional, cell-based
[Candida] auris [16] = Synergistic antifungal activity against Candida auris CBS10913 assessed as Congo red MIC incubated for 48 hrs by checker board assay; format: functional; details: Candidozyma auris
Candida parapsilosis [17] = assay: Synergistic antifungal activity against Candida parapsilosis ATCC 90018 assessed as inhibition of fungal growth incubated for 48 hrs in presence of Calcoflour White by checker board assay; format: functional; details: Lodderomyces parapsilosis
Candida [18] = assay: Downregulation of VPS34 gene expression in Candida cells; format: functional, cell-based
Candida parapsilosis [19] = assay: Synergistic antifungal activity against Candida parapsilosis ATCC 90018 assessed as Calcoflour White MIC incubated for 48 hrs by checker board assay; format: functional; details: Lodderomyces parapsilosis
[Candida] auris [20] = Synergistic antifungal activity against Candida auris CBS10913 assessed as inhibition of fungal growth incubated for 48 hrs in presence of Calcoflour White by checker board assay; format: functional; details: Candidozyma auris
Cell membrane [21] = assay: Disruption of membrane integrity in Candida auris CBS10913 assessed as cell surface perturbations measured after 3 hrs by SEM analysis; format: subcellular; details: Candidozyma auris
Candida albicans [22] = assay: Synergistic antifungal activity against Candida albicans ATCC 24433 assessed as Congo red MIC incubated for 48 hrs by checker board assay; format: functional
Candida albicans [23] = assay: Synergistic antifungal activity against Candida albicans SN152 harboring CAS5 mutant assessed as fluconazole MIC incubated for 48 hrs by checker board assay; format: functional
Candida albicans [24] = assay: Synergistic antifungal activity against Candida albicans ATCC 24433 overexpressing ADPDR5-G assessed as fractional inhibitory concentration index incubated for 48 hrs in presence of caspofungin by checker board assay; format: functional
Candida albicans [25] = assay: Antifungal activity against Candida albicans ATCC 24433 overexpressing ADCDR1-GFP assessed as inhibition of fungal growth by broth microdilution method; format: functional
Cell membrane [26] = assay: Disruption of membrane integrity in Candida albicans ATCC 24433 assessed as cell surface perturbations measured after 3 hrs by SEM analysis
Candida [27] = assay: Downregulation of GUT1 gene expression in Candida cells; format: functional, cell-based
Candida albicans [28] = assay: Synergistic antifungal activity against Candida albicans SN152 harboring CAS5 mutant assessed as inhibition of fungal growth incubated for 48 hrs in presence of Caspofungin by checker board assay; format: functional
Candida tropicalis = assay: Antifungal activity against Candida tropicalis ATCC 750 assessed as inhibition of fungal growth by broth microdilution method; format: functional
Candida [29] = assay: Downregulation of BMT4 gene expression in Candida cells; format: functional, cell-based
Cell membrane [30] = assay: Disruption of membrane integrity in Candida albicans ATCC 24433 assessed as cell deformation measured after 30 mins by SEM analysis; format: subcellular
Candida albicans [31] = assay: Synergistic antifungal activity against Candida albicans ATCC 24433 assessed as fractional inhibitory concentration index incubated for 48 hrs in presence of SDS by checker board assay; format: functional
Candida albicans [32] = assay: Synergistic antifungal activity against Candida albicans ATCC 24433 assessed as fractional inhibitory concentration index incubated for 48 hrs in presence of caspofungin by checker board assay; format: functional
Candida [33] = assay: Downregulation of CDC4 gene expression in Candida cells; format: functional, cell-based
Candida albicans [34] = assay: Synergistic antifungal activity against wild type Candida albicans SN152 assessed as inhibition of fungal growth incubated for 48 hrs in presence of Caspofungin by checker board assay; format: functional
Candida albicans [35] = assay: Inhibition of drug efflux in Candida albicans ATCC 24433 overexpressing ADPDR5-GFP assessed as reduction in rhodamine 6g efflux preincubated for 45 mins followed by substrate addition and measured after 30 mins; format: functional; details: dose 0.1-100 µg/ml, time 75.0 min, DDE = dose-dependent effect
Candida [36] = assay: Downregulation of CCT2 gene expression in Candida cells; format: functional, cell-based
Candida albicans [37] = assay: Synergistic antifungal activity against wild type Candida albicans SN152 assessed as Caspofungin MIC incubated for 48 hrs by checker board assay; format: functional
Candida [38] = assay: Downregulation of CAS5 gene expression in Candida cells; format: functional, cell-based
Candida albicans [39] = assay: Downregulation of ATO5 gene expression in Candida albicans ATCC 24433 by qRT-PCR analysis; format: functional
[Candida] auris [40] = Synergistic antifungal activity against Candida auris CBS10913 assessed as Calcoflour White MIC incubated for 48 hrs by checker board assay; format: functional; details: Candidozyma auris
[Candida] auris [41] = Synergistic antifungal activity against Candida auris CBS10913 assessed as inhibition of fungal growth incubated for 48 hrs in presence of SDS by checker board assay; format: functional; details: Candidozyma auris
Candida [42] = assay: Downregulation of ACF2 gene expression in Candida cells; format: functional, cell-based
Candida [43] = assay: Downregulation of PGA57 gene expression in Candida cells; format: functional, cell-based
Candida [44] = assay: Downregulation of VTC3 gene expression in Candida cells; format: functional, cell-based
[Candida] auris [45] = Antifungal activity against wild type Candida auris 102 assessed as inhibition of fungal growth by broth microdilution method; format: functional; details: Candidozyma auris

`O=[N+]([O-])/C=C/c1ccc(O)cc1` was tested, and the Activity (Candida [1]) was “Active”, the Activity (Candida [2]) was “Active” and the MIC (Candida albicans [3]) was 0.0078 µg/mL. For the same molecule, the MIC (Candida albicans [4]) was 1 µg/mL, the MIC80 (Candida albicans [5]) was 4 µg/mL (≈ 24.2 µM) and the Activity (Candida albicans [6]) was “Active”. The “fractional inhibitory concentration index (FICI)” value (Candida albicans [7]) was 0.25, the Activity ([Candida] auris [8]) was “Active” and the MIC (Candida parapsilosis [9]) was 6.25 µg/mL. The MIC (Candida albicans [10]) was 0.001 µg/mL, the Activity (Candida [11]) was “Active” and the MIC80 (Nakaseomyces glabratus) was 8 µg/mL (≈ 48.4 µM). The inhibition (Candida albicans [12]) was “Active”, the Activity (Candidozyma auris) was “Active” and the inhibition (Candida albicans [13]) was “Dde”. The Activity (Candida [14]) was “Active”, the Activity (Candida [15]) was “Active” and the MIC ([Candida] auris [16]) was 100 µg/mL. For the same molecule, the MIC (Candida parapsilosis [17]) was 0.0078 µg/mL, the Activity (Candida [18]) was “Active” and the MIC (Candida parapsilosis [19]) was 25 µg/mL. The MIC ([Candida] auris [20]) was 0.25 µg/mL, the Activity (Cell membrane [21]) was “Active” and the MIC (Candida albicans [22]) was 3.12 µg/mL. The MIC (Candida albicans [23]) was 0.125 µg/mL, the “fractional inhibitory concentration index (FICI)” value (Candida albicans [24]) was less than 0.5 and the MIC80 (Candida albicans [25]) was 4 µg/mL (≈ 24.2 µM). For the same molecule, the Activity (Cell membrane [26]) was “Active”, the Activity (Candida [27]) was “Active” and the MIC (Candida albicans [28]) was 0.0019 µg/mL. For the same molecule, the MIC80 (Candida tropicalis) was 4 µg/mL (≈ 24.2 µM), the Activity (Candida [29]) was “Active” and the Activity (Cell membrane [30]) was “Active”. For the same molecule, the “fractional inhibitory concentration index (FICI)” value (Candida albicans [31]) was 0.5, the “fractional inhibitory concentration index (FICI)” value (Candida albicans [32]) was less than 3.5 and the Activity (Candida [33]) was “Active”. The MIC (Candida albicans [34]) was 0.0625 µg/mL, the inhibition (Candida albicans [35]) was “Dde” and the Activity (Candida [36]) was “Active”. For the same molecule, the MIC (Candida albicans [37]) was 0.0312 µg/mL, the Activity (Candida [38]) was “Active” and the Activity (Candida albicans [39]) was “Active”. The MIC ([Candida] auris [40]) was 25 µg/mL, the MIC ([Candida] auris [41]) was 0.5 µg/mL and the Activity (Candida [42]) was “Active”. The Activity (Candida [43]) was “Active”, the Activity (Candida [44]) was “Active” and the MIC80 ([Candida] auris [45]) was 2 µg/mL (≈ 12.1 µM).
